Measured values as given in PubChem BioAssay AID1963826 (Molecular Pharmacology Branch, DTP, NCI, 2024).
“And” between values parts separate entries of the source, which are not always exact repeats. Identical values can stand only once.

System: 926638-142-R-J1-PDC complex spheroid viability
Assay: Anticancer human tumor 926638-142-R-J1-PDC patient-derived endometrial carcinoma cell line growth inhibition [POLQ]
Conditions: for viability, T/C: stronger effect = lower value; for IC50: curve of compound
Experimental: Multicellular complex tumor spheroid response to Polymerase (POL) inhibitors (novobiocin, ART-558, RP6685) in combination with a variety of drugs and investigational agents in selected tumor cell lines
The POL inhibitors (novobiocin, ART-558, and RP6685) were evaluated both individually and in combination with standard of care and investigational anticancer small molecules within a complex spheroid model of solid tumors. . Complex spheroids include a stromal component modeled by human endothelial cells (HUVEC) and fibroblasts modeled by human mesenchymal stem cells (MSCs). The concentration ranges selected for each drug and investigational agent were based upon clinically achievable concentrations if the clinical Cmax of the agent was known.
Compounds. The drugs and investigational agents: novobiocin (NSC847541), ART-558 (NSC835418), RP-6685 (NSC848927), peposertib (NSC802822), ceralasertib (NSC780249), elimusertib (NSC800525), camonsertib (NSC841442), AZD-1390 (NSC803789), olaparib (NSC753686), talazoparib (NSC767125), rucaparib (NSC756644), sotorasib (NSC818433), MRTX-1133 (NSC836407), SN-38 (NSC673596), topotecan (NSC609699), epotoside (NSC141540), doxorubicin (NSC123127), gemcitabine (NSC613327), 5-fluorouracil (NSC19893), paclitaxel (NSC125973), vemurafenib (NSC761431), MSA-2 (NSC828583), SN-011 (NSC837082), adavosertib (NSC754352), prexasertib (NSC758257), carboplatin (NSC241240) and oxaliplatin (NSC266046), were obtained from the National Cancer Institute (NCI) Developmental Therapeutics Program Chemical Repository (21). The FDA-approved anticancer drug set is available from the Developmental Therapeutics Program at https://dtp.cancer.gov/organization/dscb/obtaining/. […] The stock solutions were prepared in dimethyl sulfoxide (DMSO, Sigma-Aldrich, St. Louis, MO, cat. D2650), except for the platinum compounds which were prepared in saline (Quality Biological, Gaithersburg, MD, cat. 114-055-101), at 800-fold the tested concentration and stored at -70 degrees C prior to their use. All drugs and investigational agents were tested over a range starting from a high concentration at or near the clinical Cmax and decreasing in half-log increments. If the clinical Cmax for an agent had not been determined, the highest concentration tested was 10 microM, except for SN-38, which was tested at a high concentration of 1 microM.
Cell Culture. All cells were maintained in an incubator at 37 degrees C and 5% CO2 with 95% humidity. The PDC lines were cultured according to standard operating procedures established by the NCI PDMR (https://pdmr.cancer.gov). Table 3 of the manuscript, lists the cell lines along with the number of the three cell types plated to form the mct-spheroids and media for tumor cell growth. After thawing, all PDC lines, except 997537-175-T-J1-PDC and 415267-285-R-J2-PDC, were cultured in Matrigel-coated flasks prepared with a working solution of 1X Ham's F-12 nutrient mix, without supplementation (Thermo Fisher Scientific, cat. 11765054), 100 U/mL penicillin-streptomycin (Thermo Fisher Scientific, cat. 15140122), and 2.5% Matrigel (Corning Inc., Corning, NY, cat. 354248) for the first three passages. The two PDC lines 997537-175-T-J1-PDC and 415267-285-R-J2-PDC were cultured on uncoated flasks. The 857933-349-R-J2-PDC line was cultured in 6C/Colon 1B media containing advanced DMEM/F-12 (Thermo Fisher Scientific, cat. 12634028), 10 mM HEPES (Thermo Fisher Scientific, cat. 15630080), 1X GlutaMAX supplement (Thermo Fisher Scientific, cat. 35050061), 0.1 mg/mL primocin (InvivoGen, San Diego, CA, cat. ant-pm-2), 10% defined fetal bovine serum, heat inactivated (HyClone Laboratories Inc., Logan, UT, cat. SH30070.03HI), 50% L-WRN conditioned media (ATCC, cat. CRL-3276), 1.25 mM N-Acetyl-L-cysteine (Sigma-Aldrich, cat. A9165), 10 mM nicotinamide (Sigma-Aldrich, cat. N0636), 1X B-27 supplement (Thermo Fisher Scientific, cat. 17504044), 1X N-2 supplement (Thermo Fisher Scientific, cat. […]
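Note: spheroids exposed to drugs for one week before readout.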
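Throughout, for viability, T/C: percent viability relative to DMSO vehicle control wells set as 100%.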

| SMILES | viability, T/C (compound 0.0316 µM) | viability, T/C (compound 0.1 µM) | viability, T/C (compound 0.316 µM) | viability, T/C (compound 1 µM) | viability, T/C (compound 3.16 µM) | viability, T/C (compound 10 µM) | IC50 | viability, T/C (compound 0.00316 µM) | viability, T/C (compound 0.01 µM) | viability, T/C (compound 0.00949 µM) | viability, T/C (compound 0.03 µM) | viability, T/C (compound 0.0949 µM) | viability, T/C (compound 0.3 µM) | viability, T/C (compound 0.949 µM) | viability, T/C (compound 3 µM) | viability, T/C (compound 0.000316 µM) | viability, T/C (compound 0.001 µM) |
| --- | --- | --- | --- | --- | --- | --- | --- | --- | --- | --- | --- | --- | --- | --- | --- | --- | --- |
| C#Cc1c(F)ccc2cc(O)cc(-c3ncc4c(N5CC6CCC(C5)N6)nc(OCC56CCCN5CC(F)C6)nc4c3F)c12 (stereo unspecified) | 85.1% and 98.5% and 86.6% | 88.2% and 90.2% and 93.3% | 79.4% and 92.4% and 73.8% | 78.3% and 69.2% and 77.4% | 65.5% and 80.2% and 60.2% | 52.5% (2×) and 67.8% | > 10000 nM |  |  |  |  |  |  |  |  |  |  |
| C=CC(=O)N1CCN(c2nc(=O)n(-c3c(C)ccnc3C(C)C)c3nc(-c4c(O)cccc4F)c(F)cc23)C(C)C1 (stereo unspecified) | 73.8% and 100% and 104% | 88.7% and 83.5% and 89.7% | 75.7% and 108% and 103% | 82.7% and 84.2% and 86.3% | 72.6% and 88% and 81% | 58.7% and 55% and 55.7% | > 10000 nM |  |  |  |  |  |  |  |  |  |  |
| C=CCn1c(=O)c2cnc(Nc3ccc(N4CCN(C)CC4)cc3)nc2n1-c1cccc(C(C)(C)O)n1 | 99.2% and 71.9% and 92.3% | 95.8% and 78.3% and 77% | 47.6% and 50.2% and 49% | 36.5% and 43.9% and 48.2% |  |  | 296 nM and 541 nM and 300 nM | 85% and 93.8% and 95.4% | 80.4% and 77.2% and 83.5% |  |  |  |  |  |  |  |  |
| CC(=O)O[C@H]1C(=O)[C@@]2(C)[C@H]([C@H](OC(=O)c3ccccc3)[C@]3(O)C[C@H](OC(=O)[C@H](O)[C@@H](NC(=O)c4ccccc4)c4ccccc4)C(C)=C1C3(C)C)[C@]1(OC(C)=O)CO[C@@H]1C[C@@H]2O |  |  |  |  |  |  | > 3000 nM |  |  | 82.5% and 94% and 68.4% | 63.2% and 60.2% and 77.5% | 57.1% and 53.2% and 62.2% | 55% and 53.9% and 68.9% | 61.5% and 52.6% and 56% | 44.7% and 45.7% and 57.5% |  |  |
| CC(C)n1c(=O)n(C)c2cnc3cc(F)c(-c4ccc(OCCCN5CCCCC5)nc4)cc3c21 | 98.1% and 96.9% and 85.4% | 99.6% and 92.2% and 101% | 78.3% and 94.7% and 126% | 101% and 93.6% and 113% | 89.7% and 80.9% and 94.1% | 51.1% and 73.2% and 92.8% | > 10000 nM |  |  |  |  |  |  |  |  |  |  |
| CC1COCCN1c1cc(-c2ccnn2C)c2ccnc(-c3ccn[nH]3)c2n1 (stereo unspecified) | 83.5% and 103% and 85.4% | 79.7% and 81.4% and 63.6% | 55.4% and 57.6% and 51.2% | 31.7% and 36.2% and 33% | 13.4% and 11.8% and 14.9% | 6.95% and 8.69% and 9.29% | 435 nM and 450 nM and 287 nM |  |  |  |  |  |  |  |  |  |  |
| CC1COCCN1c1cc(C2(O)CC3CCC(C2)O3)c2cnn(-c3ccn[nH]3)c2n1 (stereo unspecified) | 91.2% and 96.2% and 105% | 64.1% and 73.2% and 58.2% | 37% and 33.6% and 36.9% | 12.2% and 13.1% and 15.8% | 6.85% and 6.69% and 9.86% | 2.36% and 3.68% and 4.18% | 178 nM and 198 nM and 156 nM |  |  |  |  |  |  |  |  |  |  |
| CC1COCCN1c1cc(C2(S(C)(=N)=O)CC2)nc(-c2ccnc3[nH]ccc23)n1 (stereo unspecified) | 103% and 96.2% and 125% | 100% and 97.9% and 87.2% | 94.2% and 87.3% and 90% | 88.5% and 93.7% and 95% | 64.7% and 71.3% and 62.5% | 32.1% and 35.3% and 33.8% | 5380 nM and 6230 nM and 5460 nM |  |  |  |  |  |  |  |  |  |  |
| CCCS(=O)(=O)Nc1ccc(F)c(C(=O)c2c[nH]c3ncc(-c4ccc(Cl)cc4)cc23)c1F | 104% and 88.4% and 90.9% | 107% and 99.6% and 92.5% | 96.6% and 97% and 86% | 98.3% and 106% and 94.4% | 88.2% and 76.9% and 82% | 50.4% and 47.4% and 51.5% | > 10000 nM and 9030 nM |  |  |  |  |  |  |  |  |  |  |
| CC[C@@]1(O)C(=O)OCc2c1cc1n(c2=O)Cc2cc3c(CN(C)C)c(O)ccc3nc2-1 | 68.5% and 73.5% and 62% | 43.1% and 49% and 41.8% |  |  |  |  | 72.3 nM and > 100 nM and 63.1 nM | 86.8% and 84.1% and 78.3% | 72.1% and 81.6% and 70.2% |  |  |  |  |  |  | 92.4% and 102% and 103% | 87.4% and 90.6% and 84.2% |
| CCc1c2c(nc3ccc(O)cc13)-c1cc3c(c(=O)n1C2)COC(=O)[C@]3(O)CC | 39% and 39.6% and 38.6% | 24.9% and 26.6% and 21% | 10.9% and 16.3% and 8.99% | 4.17% and 12.3% and 5.58% |  |  | 10 nM and 7.31 nM and 12.5 nM | 65.4% and 62.4% and 71.3% | 46.9% and 39.7% and 51.1% |  |  |  |  |  |  |  |  |
| CCc1cc2c(N3CCc4c(cc(Cn5ccnc5)cc4-c4cn(C)nc4C(F)(F)F)C3=O)cc(C)nc2c(OC)n1 | 76.6% and 76.9% and 72.4% | 62.2% and 66.4% and 61.3% | 52.8% and 62% and 51.8% | 42% and 51.2% and 48.4% | 26.5% and 38% and 43% | 23.4% and 35.1% and 33.4% | 373 nM and 987 nM and 595 nM |  |  |  |  |  |  |  |  |  |  |
| CCc1cc2c(N3CCc4c(cc(Cn5ccnc5)cc4-c4cn(C)nc4C(F)(F)F)C3=O)ccnc2c(OC)n1 | 60.9% and 84.9% and 79% | 79.4% and 67.7% and 61% | 48% and 59.9% and 64.8% | 43.1% and 45% and 49.4% | 25.4% and 39.3% and 37.3% | 27.3% and 29.5% and 28.1% | 456 nM and 714 nM and 921 nM |  |  |  |  |  |  |  |  |  |  |
